This is an account of results in patent publication US20230002357A1, “7-PYRIMIDINE-2-YL-OXY-INDAZOLE DERIVATIVES AND THEIR USE AS HERBICIDES” (SYNGENTA CROP PROTECTION AG, priority 2019, published 2023).

Common to all, as to assay type: in vivo
What all share (details): 250 g/ha, evaluated after 13 days

Assay [1] concerns ABUTH. The assay can be described thus: Post-emergence Test, glasshouse, ABUTH. Here is the method:
(§1) Seeds of a variety of test species are sown in standard soil in pots Amaranthus retoflexus (AMARE), Echinochloa crus-galli (ECHCG), Setaria faberi (SETFA)). After cultivation for one day (pre-emergence) or after 8 days cultivation (post-emergence) under controlled conditions in a glasshouse (at 24/16° C., day/night; 14 hours light; 65% humidity), the plants are sprayed with an aqueous spray solution derived from the formulation of the technical active ingredient in acetone/water (50:50) solution containing 0.5% Tween™ 20 (polyoxyethelyene sorbitan monolaurate, CAS RN 9005-64-5). Compounds are applied at 250 g/ha unless otherwise stated. The test plants are then grown in a glasshouse under controlled conditions in a glasshouse (at 24/16° C., day/night; 14 hours light; 65% humidity) and watered twice daily. After 13 days for pre- and post-emergence, the test is evaluated for the percentage damage caused to the plant. The biological activities are shown in the following table on a five-point scale (5=81-100%; 4=61-80%; 3=41-60%; 2=21-40%; 1=0-20%).

The test system of assay [2] is IPOHE. The assay can be described thus: Pre-emergence Test, glasshouse, IPOHE. Here is the method: as §1
Assay [3] has as its system Setaria faberi (SETFA). The assay can be described thus: Pre-emergence Test, glasshouse, SETFA. Here is the method: as §1
In assay [4] the test system is IPOHE. The assay can be described thus: Post-emergence Test, glasshouse, IPOHE. Here is the method:
as §1

Assay [5] deals with Amaranthus retoflexus (AMARE). The assay can be described thus: Pre-emergence Test, glasshouse, AMARE. Here is the method: as §1
In assay [6] the test system is ABUTH. The assay can be described thus: Pre-emergence Test, glasshouse, ABUTH. Here is the method: as §1
For assay [7], the system named is Setaria faberi (SETFA). The assay can be described thus: Post-emergence Test, glasshouse, SETFA. Here is the method:
as §1

For assay [8], the system named is Amaranthus retoflexus (AMARE). The assay can be described thus: Post-emergence Test, glasshouse, AMARE. Here is the method: as §1

Consider `FC(F)(F)CCCn1nnc2cccc(Oc3ncc(Cl)cn3)c21` [Compound 1.020, 7-(5-chloropyrimidin-2-yl)oxy-1-(4,4,4-trifluorobutyl) benzotriazole], for which the figures for the “percentage damage caused to the plant, five-point scale, ABUTH” value (from here on “percentage damage caused … ABUTH”) in the assay on ABUTH [1] and in the assay with ABUTH [6] were 3 (3=41-60%) and 4 (4=61-80%), respectively. Moreover, the “percentage damage caused to the plant, five-point scale, IPOHE” value (shortened to “percentage damage caused … IPOHE”) in the assay on IPOHE [2] and with IPOHE [4] was 2 (2=21-40%) throughout. Further, the “percentage damage caused to the plant, five-point scale, SETFA” value (“percentage damage caused … SETFA” below) in the assay with Setaria faberi (SETFA) [3] and in the assay with Setaria faberi (SETFA) [7] was 5 (5=81-100%) throughout. Also, the “percentage damage caused to the plant, five-point scale, AMARE” value (from here on “percentage damage caused … AMARE”) in assay [5] is on record as 5 (5=81-100%); in assay [8], 2 (2=21-40%).
`Cc1nn(CCCC(F)(F)F)c2c(Oc3ncc(Cl)cn3)cccc12` [Compound 1.021, 7-(5-chloropyrimidin-2-yl)oxy-3-methyl-1-(4,4,4-trifluorobutyl)indazole]: the “percentage damage caused … ABUTH” value in the assay with ABUTH [1] is listed as 4 (4=61-80%); in the assay on ABUTH [6], 3 (3=41-60%). In addition, the “percentage damage caused … IPOHE” value with IPOHE [2] is recorded as 2 (2=21-40%); in the assay on IPOHE [4], 3 (3=41-60%). Also, the results for the “percentage damage caused … SETFA” value in the assay with Setaria faberi (SETFA) [3] and in the assay with Setaria faberi (SETFA) [7] were 5 (5=81-100%) and 4 (4=61-80%), respectively. For the same molecule, the figures for the “percentage damage caused … AMARE” value in assay [5] and in assay [8] were 5 (5=81-100%) and 1 (1=0-20%), respectively.
For the molecule `COc1cc(Oc2cccc3nnn(CCCC(F)(F)F)c23)ncn1` [Compound 1.023], the “percentage damage caused … ABUTH” value in the assay with ABUTH [1] and with ABUTH [6] was 1 (1=0-20%) throughout. For the same molecule, the “percentage damage caused … IPOHE” value in the assay on IPOHE [2] and in the assay on IPOHE [4] was 1 (1=0-20%) in each case. In addition, the “percentage damage caused … SETFA” value with Setaria faberi (SETFA) [3] and in the assay on Setaria faberi (SETFA) [7] was 1 (1=0-20%) throughout. The “percentage damage caused … AMARE” value in assay [5] and in assay [8] was 1 (1=0-20%) in each case.
Take `N#Cc1cc(Oc2ncc(Cl)cn2)c2c(cnn2CCCC(F)(F)F)c1` [Compound 1.024]: the “percentage damage caused … ABUTH” value in the assay on ABUTH [1] is on record as 2 (2=21-40%); in the assay with ABUTH [6], 1 (1=0-20%). In addition, the “percentage damage caused … IPOHE” value in the assay on IPOHE [2] and in the assay with IPOHE [4] was 1 (1=0-20%) in each case. For the same molecule, the “percentage damage caused … SETFA” value in the assay on Setaria faberi (SETFA) [3] was 4 (4=61-80%); with Setaria faberi (SETFA) [7] it was 1 (1=0-20%). Also, the “percentage damage caused … AMARE” value is 4 (4=61-80%) in assay [5] and 2 (2=21-40%) in assay [8].
`FC(F)(F)CCCn1ncc2c(Br)ccc(Oc3ncc(Cl)cn3)c21` [Compound 1.025]: the “percentage damage caused … ABUTH” value in the assay with ABUTH [1] is 2 (2=21-40%); in the assay with ABUTH [6], 1 (1=0-20%). Also, the “percentage damage caused … IPOHE” value with IPOHE [2] and with IPOHE [4] was 1 (1=0-20%) throughout. Also, the “percentage damage caused … SETFA” value with Setaria faberi (SETFA) [3] and in the assay on Setaria faberi (SETFA) [7] was 2 (2=21-40%) in each case. Further, the figures for the “percentage damage caused … AMARE” value in assay [5] and in assay [8] were 1 (1=0-20%) and 2 (2=21-40%), respectively.
